Data on two molecules can be found in article PMC11077991, “The small molecule CBR-5884 inhibits the Candida albicans phosphatidylserine synthase” (mBio, 2024).

One data set concerns purified Cho1. Briefly: CBR-5884 washout assay (radioactive PS synthase assay). Type of data set: biochemical, Candida albicans. As to conditions: 100 µM preincubated 2 h, buffer exchange. The protocol: For CBR-5884 washout assays, purified Cho1 was incubated with CBR-5884 at a final concentration of 100 µM, or equivalent DMSO, in 100 µL volume on ice for 2 h. The CBR-5884 was then washed out by exchanging with 4 mL 50 mM Tris-HCl at pH 8.0 and 0.1% digitonin three times in the Amicon Ultra Centrifugal Filter (10 kDa MWCO). The sample was concentrated to the volume of approximately 500 µL, and protein concentration was determined using the Pierce detergent-compatible Bradford assay kit. The reaction was set up with 50 mM Tris-HCl (pH 8.0), 1 mM MnCl2, 0.1% Triton X-100, 0.1% digitonin, 0.1 mM (4.7 mol %), 16:0 CDP-DAG (Avanti, cat# 870510), and 10 mM L-serine [spiked with 5% (by volume) L-[3H]-serine (15 Ci/mmol)] at a total volume of 100 µL, in the presence of 100 µM CBR-5884 or equivalent DMSO solvent. The reaction was stopped at 20, 40, and 60 min, and specific activity was calculated based on the slope of linear PS production, representing the initial velocity.

The subject of data set [1] is phospholipid levels in C. albicans. Briefly: thin-layer chromatography of phospholipids. As to conditions: 170 µM, 2 h. Type of data set: cell-based, Candida albicans. As to the method:
Wild-type SC5314 and cho1ΔΔ strains grown overnight in YPD were inoculated into fresh YPD at OD600 of 0.1 and were shaken for another 3 h. Then, 170 µM CBR-5884 or equivalent DMSO solvent was added to both wild-type and cho1ΔΔ cultures, and cells were shaken for another 2 h. Then, cells were washed with 1× PBS three times and normalized to a total OD600 of 1. The phospholipids were extracted with the hot ethanol method as described in reference ([14]). A Whatman 250 µm silica gel aluminum backed plate was treated, and separation of phospholipids was carried out as described in reference ([100]). Phospholipid standards PI, PE, PS, and PC were purchased from Avanti. The quantification of the phospholipids was done in ImageJ software.

The next data set concerns cho1ΔΔ strain. In words: growth of cho1ΔΔ strain in rich YPD media. Type of data set: cell-based, Candida albicans.
The test system of data set [2] is in vivo PS production in wild-type C. albicans. Briefly: metabolic labeling of PS using probe C-L-SerN3. Format: cell-based, Candida albicans. As to conditions: 170 µM CBR-5884, 1.5 mM probe. As to the method: The C-L-SerN3 probe [(S)-1-((3-azidopropyl)amino)-3-hydroxy-1-oxopropan-2-aminium chloride] was synthesized as described in reference ([59]). Cells grown overnight in YPD were washed three times in H2O and inoculated into minimal media at a starting OD600 of 0.05. Cells were shaken for 5 h before 1.5 mM C-L-SerN3 probe was added, along with 170 µM CBR-5884 or an equivalent volume of DMSO. Cells were then incubated for another 5 h before being washed three times with H2O, and 5% BSA in 1× PBS was used to treat cells for 20 min. The cells were then washed three times with 1× PBS and then resuspended to OD600 of 0.6 in 1 mL PBS + 1 µM AZDye 488 DBCO (Click chemistry tools, cat# 1278-1). Cells were covered with aluminum foil and rocked for 1 h, and the dye was removed by pelleting the cells at 5,000 × g followed by washing with shaking at 1,000 rpm three times in 1× PBS, and resuspended in 200 µL Fluoromount-G mounting medium (cat# 00-4958-02). For each treatment, 10 µL of cells was added to a glass slide and 3 µL fresh Fluoromount-G mounting medium was used to mix the sample. […] The samples were excited using light at a wavelength of 488 nm, and the resulting fluorescence was captured within the range of 498–550 nm using a HyD detector. […] A total of 40 cells from at least 10 images were used for the quantification in ImageJ software.

Data set [3] deals with wild-type C. albicans cell wall β(1-3)-glucan exposure. Briefly: fluorescence imaging of unmasked β(1-3)-glucan. Format: cell-based, Candida albicans. As to conditions: 170 µM, YPD. As to the method: Wild-type and cho1ΔΔ cells were grown in YPD overnight (~16 h), and back diluted to fresh YPD with OD600 of ~0.1. The cells were then shaken at 225 rpm for 3 h before 170 µM CBR-5884 or equivalent DMSO were added. The cells were further shaken for 30, 60, 120 min before staining with anti-β(1-3)-glucan antibody. The cells were stained as previously described ([57], [97]) with the exception that goat anti-mouse antibody conjugated to Alexa Fluor 488 (Jackson ImmunoResearch) was used as the secondary antibody. For imaging, Candida cells were resuspended in 200 µL of Fluoromount-G mounting medium and visualized with a Leica SP8 white light laser confocal microscope. The pictures were taken through Leica Application Suite X office software and quantified as described above.

Data set [4] is classed as physicochemical. As to conditions: 12 h, 170 µM. As to the method: However, it was observed that the impact of CBR-5884 on cell growth was only temporary, with a delay lasting 12 h. […] To disentangle these two possibilities, experiments were conducted where both CBR-5884 and DMSO were subjected to 12 h of agitation at 30°C before being introduced to live cells. The growth of these cells was monitored over the next 14 h, with an OD600 measurement every 2 h, to assess the persistence of CBR-5884’s efficacy (Fig. 4F); in the meantime, cells that had been grown in 170 µM CBR-5884 for 12 and 24 h were transferred into fresh media containing new CBR-5884, which was allowed to grow for another 14 h, to probe the rising of resistance (Fig. 4G). In both experimental setups, cells grew slowly in the presence of CBR-5884 compound compared to DMSO control.
The growth curves with LOC14 and CBR-5884 treatments were measured from 2 to 30 h with OD600 measurements every 2 h. A final concentration of 170 µM CBR-5884, 430 µM LOC14, and 5 mM serine was added into each group as indicated. To test the stability of CBR-5884, minimal medium supplemented with 170 µM CBR-5884 or equivalent DMSO was agitated for 12 h before the introduction of wildtype C. albicans SC5314 strain, and growth curves were recorded from 0 to 14 h with OD600 measurement every 2 h. […] The growth curves were recorded from 0 to 14 h with OD600 measurement every 2 h. […]

Another data set deals with C57BL/6 j mice. Also on record: method as in PMID 25848045. As to conditions: high dose of 20 mg/kg; cited from earlier work.

Turning to `CCOC(=O)c1sc(NC(=O)c2ccco2)c(SC#N)c1C` [CBR-5884], the “inhibition after preincubation and washout” value in the data set with purified Cho1 is “absence of inhibition”. Also, in data set [1], the PI levels result is given as “not strongly affected” and the “relative PS level in wild-type strain vs DMSO” value is recorded as “significantly dropped”. Further, in data set [1] (wild-type and cho1ΔΔ), the “relative PE levels” value is given as “significantly decreased”. For the same molecule, in the data set on cho1ΔΔ strain, the “growth of the cho1ΔΔ strain” value is “decreases growth”. In addition, the “C-L-SerN3 fluorescence on the periphery of the cell” value in data set [2] is recorded as “significantly diminished”. The “β(1-3)-glucan unmasking vs wild-type in DMSO” value in data set [3] (30-min treatment) is on record as “significantly increased unmasking”. Besides, in data set [3] (120-min treatment), the “β(1-3)-glucan unmasking vs cho1ΔΔ mutant” value is reported as “more unmasking than the cho1ΔΔ mutant”. In addition, the “stability and effectiveness under agitation” value in data set [4] was “at least 12 h”.

Take `O=C(C1CC1)N1CCN(Cn2sc3ccccc3c2=O)CC1` [LOC14]: the tolerability entry in the data set on C57BL/6 j mice was “well tolerated”.
